In US4345938A, “Herbicidal 2-haloacetanilides” (Monsanto Company, priority 1980, dated 1982):
Where two headings read alike, the source gives them in different places.

Columns and labels:
Assay type in all cases: in vivo
[1] = tested on: Cyperus serotinus; assay: Field transplant rice test, applied 0 DAT, CS; settings: 0 h, read-out: Percent Inhibition, CS; for inhibition at 375 g/ha: 0.375 Kg/Ha; for inhibition at 750 g/ha: 0.75 Kg/Ha; for inhibition at 1500 g/ha: 1.5 Kg/Ha; for inhibition at 3000 g/ha: 3.0 Kg/Ha
Method: (§1) The test data in Table III for all compounds was obtained under identical test conditions. The weeds used in the tests herein have the following abbreviations in the tables: Echinochloa crus-galli (EC), Monochloria vaginalis (MV), Cyperus Serotinus (CS), Eleocharis Kuroguwai (EK) and Sagittaria trifolia (ST).
(§2) In further comparative tests, a preferred compound of this invention (Example 1) was tested in the field with prior art Compounds A-D. These tests were conducted under conditions reflecting herbicide application times generally favorable to all herbicides in the test. The timing of application of herbicides to transplant rice is very important, whether, as in some instances, prior to transplanting the rice; in other instances, at the time of transplanting or else after transplanting. Application times are conventionally referred to as "days before transplant" (DBT) or "days after transplant" ("DAT"). The field test data in Table IV was obtained from a test in which the herbicides were applied at the time of transplant, i.e., "0 DAT", with observations being made weekly up to six weeks after transplant ("WAT") beginning at two weeks after transplant; for illustrative and representative purposes, only the early, middle and late period observations, i.e., 2 WAT, 4 WAT and 6 WAT, are shown in Table IV. The data in Table IV is for rates of application common to all herbicides in the test, i.e., from 3.0 kg/ha (2.67 lb/A) down to 0.375 kg/ha (0.34 lb/A). All herbicides were applied at their actual or expected use rates, i.e., as granules containing 2.5% by weight herbicide for the compound of Example 1, Compounds B, C and D and 5.0% by weight for Compound A.

[2] = tested on: Sagittaria trifolia; assay: Field transplant rice test, applied 9 DAT, ST; settings: 216 h, read-out: Percent Inhibition, ST; for inhibition at 375 g/ha: 0.375 Kg/Ha; for inhibition at 750 g/ha: 0.75 Kg/Ha; for inhibition at 1500 g/ha: 1.5 Kg/Ha; for inhibition at 3000 g/ha: 3.0 Kg/Ha
Method: as §1, §2
(§3) In Table V are presented field data showing the relative performance of the compound of Example 1 and Compounds A-D applied 9 DAT, with observations being made weekly from 3 WAT to 7 WAT; again, for illustrative and representative purposes, only the early, middle and late period observations are reported in Table V, the herbicide rates and concentrations of active ingredients the same as is shown in Table IV.

[3] = tested on: Rice; assay: Field transplant rice test, applied 9 DAT, rice injury; settings: Oryza sativa, 216 h, read-out: Percent Inhibition, Rice; for inhibition at 375 g/ha: 0.375 Kg/Ha; for inhibition at 750 g/ha: 0.75 Kg/Ha; for inhibition at 1500 g/ha: 1.5 Kg/Ha; for inhibition at 3000 g/ha: 3.0 Kg/Ha
Method: as §2, §3

[4] = tested on: Monochoria vaginalis; assay: Field transplant rice test, applied 0 DAT, MV; settings: Pontederia vaginalis, 0 h, read-out: Percent Inhibition, MV; for inhibition at 375 g/ha: 0.375 Kg/Ha; for inhibition at 750 g/ha: 0.75 Kg/Ha; for inhibition at 1500 g/ha: 1.5 Kg/Ha; for inhibition at 3000 g/ha: 3.0 Kg/Ha
Method: as §1, §2

[5] = tested on: Echinochloa crus-galli; assay: Field transplant rice test, applied 0 DAT, EC; settings: 0 h, read-out: Percent Inhibition, EC; for inhibition at 375 g/ha: 0.375 Kg/Ha; for inhibition at 750 g/ha: 0.75 Kg/Ha; for inhibition at 1500 g/ha: 1.5 Kg/Ha; for inhibition at 3000 g/ha: 3.0 Kg/Ha
Method: as §1, §2

## CCCCOCCN(C(=O)CCl)c1c(CC)cccc1CC [Compound B, 2',6'-diethyl-N-(n-butoxyethyl)-2-chloroacetanilide]
[1]; 2 WAT
  inhibition at 375 g/ha: 62%
  inhibition at 750 g/ha: 70%
  inhibition at 1500 g/ha: 82%
  inhibition at 3000 g/ha: 72%
[1]; 4 WAT
  inhibition at 375 g/ha: 55%
  inhibition at 750 g/ha: 53%
  inhibition at 1500 g/ha: 83%
  inhibition at 3000 g/ha: 62%
[1]; 6 WAT
  inhibition at 375 g/ha: 3%
  inhibition at 750 g/ha: 12%
  inhibition at 1500 g/ha: 45%
  inhibition at 3000 g/ha: 37%
[2]; 3 WAT
  inhibition at 375 g/ha: 5%
  inhibition at 750 g/ha: 38%
  inhibition at 1500 g/ha: 40%
  inhibition at 3000 g/ha: 42%
[2]; 5 WAT
  inhibition at 375 g/ha: 2%
  inhibition at 750 g/ha: 12%
  inhibition at 1500 g/ha: 25%
  inhibition at 3000 g/ha: 25%
[2]; 7 WAT
  inhibition at 375 g/ha: 5%
  inhibition at 750 g/ha: 10%
  inhibition at 1500 g/ha: 13%
  inhibition at 3000 g/ha: 12%
[3]; 3 WAT
  inhibition at 375 g/ha: 12%
  inhibition at 750 g/ha: 12%
  inhibition at 1500 g/ha: 10%
  inhibition at 3000 g/ha: 12%
[3]; 5 WAT
  inhibition at 375 g/ha: 0%
  inhibition at 750 g/ha: 5%
  inhibition at 1500 g/ha: 2%
  inhibition at 3000 g/ha: 5%
[3]; 7 WAT
  inhibition at 375 g/ha: 5%
  inhibition at 750 g/ha: 3%
  inhibition at 1500 g/ha: 5%
  inhibition at 3000 g/ha: 2%
[4]; 2 WAT
  inhibition at 375 g/ha: 97%
  inhibition at 750 g/ha: 95%
  inhibition at 1500 g/ha: 98%
  inhibition at 3000 g/ha: 100%
[4]; 4 WAT
  inhibition at 375 g/ha: 90%
  inhibition at 750 g/ha: 98%
  inhibition at 1500 g/ha: 100%
  inhibition at 3000 g/ha: 100%
[4]; 6 WAT
  inhibition at 375 g/ha: 80%
  inhibition at 750 g/ha: 100%
  inhibition at 1500 g/ha: 100%
  inhibition at 3000 g/ha: 97%
[5]; 2 WAT
  inhibition at 375 g/ha: 55%
  inhibition at 750 g/ha: 87%
  inhibition at 1500 g/ha: 90%
  inhibition at 3000 g/ha: 97%
[5]; 4 WAT
  inhibition at 375 g/ha: 68%
  inhibition at 750 g/ha: 93%
  inhibition at 1500 g/ha: 98%
  inhibition at 3000 g/ha: 100%
[5]; 6 WAT
  inhibition at 375 g/ha: 37%
  inhibition at 750 g/ha: 88%
  inhibition at 1500 g/ha: 98%
  inhibition at 3000 g/ha: 100%
